Assay results reported in article PMC10585379, “Hydrophobic moment drives penetration of bacterial membranes by transmembrane peptides” (The Journal of Biological Chemistry, 2023).
Values after ≈ are worked out from the molar mass of the structure shown. Where a SMILES comes first, the peptide text is derived from it. [ ]: non-standard residue; d: D form. Sar = CNCC(=O)O

Experiments:
E. coli K12 [1] = format: cell-based, Escherichia coli; conditions: E. coli K12, Mueller-Hinton broth, 50,000 CFU/well, up to 64 μM peptide, 37 °C, 20 h, OD 600 nm; concentration giving >99% reduction in growth; mean and standard deviation of the mean
Protocol: Overnight cultures of E. coli K-12 grown in Mueller-Hinton broth were incubated at 50,000 CFU/well with up to 64 μM of peptide in 96-well plates (Corning, Ref 3598). Plates were then incubated at 37 °C for 20 h, after which the optical density (OD) was measured at 600 nm. Minimum inhibitory concentration (MIC) was determined as the peptide concentration resulting in >99% reduction in growth.

E. coli K12 [2] = format: cell-based, Escherichia coli; conditions: E. coli K12 in M9 minimal media, 30 μM DiOC2(3) 5 min, 20 μM CCCP or 8 μM peptide, 37 °C, up to 180 min, ex 450/em 510 nm; duplicate, three independent days
Protocol: Overnight cultures of E. coli K12 grown in Luria-Bertani (LB) broth were pelleted and resuspended to an OD600 of 0.4 in M9 minimal media. Cultures were grown at 37 °C for 30 min prior to being incubated with 10 mM EDTA for 5 min. Cultures were pelleted again and resuspended in fresh M9 minimal media to remove EDTA before the addition of 30 μM 3,3′-diethyloxacarbocynanine iodide (DiOC2 ([3]); Invitrogen). […] Fluorescence was measured immediately at 37 °C every 3 min for up to 3 h using a SpectraMax Gemini EM microplate reader set to 450 nm excitation and 510 nm emission wavelengths. Fluorescence curves were normalized to wells containing only dye and then plotted and analyzed using GraphPad Prism 9. Data at 15-min intervals are presented as mean and standard deviation of the mean for ease of visualization. Experiments were performed in duplicate and repeated on three independent days.

[3] = Tryptophan quenching assay with dibrominated lipid LUVs; format: physicochemical; conditions: 5 μM peptide or BSA, peptide-to-lipid ratio of 62.5, 0-30% brominated lipid, Stern-Volmer plot; mean of three independent analyses
Protocol: Large unilamellar vesicles (LUVs) were prepared using methods previously described ([14]). Briefly, 1-palmitoyl-2-oleoyl-sn-glycero-3-phosphoethanolamine (POPE) and 1-palmitoyl-2-oleoyl-sn-glycero-3-phospho-(1′-rac-glycerol) (POPG) (Avanti Polar Lipids) were combined in a 3:1 ratio, respectively, in chloroform and dried to a film before water washing and lyophilizing into a powder. This powder was resuspended in Tris-Cl buffer (10 mM Tris, 10 mM NaCl, pH 7), freeze-thawed 5× (dry ice – 50 °C water bath) and extruded through a mini-extruder fitted with a 0.2 μm Whatman Nuclepore polycarbonate membrane filter (Cytiva) at least 15× to form LUVs. Where applicable, 1-palmitoyl-2-(6,7-dibromo)stearoyl-sn-glycero-3-phosphocholine (PC-Br ([6], [7])) or 1-palmitoyl-2-(11,12-dibromo)stearoyl-sn-glycero-3-phosphocholine (PC-Br ([11], [12])) (Avanti Polar Lipids) were substituted for POPE at the given percentages and incorporated into LUVs as described.
Brominated lipid-containing LUVs (0%, 10%, 20%, and 30%) were combined with 5 μM peptide and tryptophan emission fluorescence was recorded from 300 to 400 nm using a 280 nm excitation wavelength. Fluorescence spectra were plotted and the area under the curve was used to generate a Stern-Volmer plot of initial fluorescence/quenched fluorescence (Fo/F) against percentage brominated lipid. […]

[4] = Circular dichroism, peptide secondary structure; format: physicochemical; conditions: 20 μM peptide, 10 mM Tris-Cl, 10 mM NaCl, pH 7, minima at 208 and 222 nm, average of three independent analyses
Protocol: Circular dichroism (CD) spectra of peptides were recorded between 190 and 250 nm on a Jasco J-1500 CD spectropolarimeter using a 0.1 cm pathlength quartz cuvette, scanning at […] with three accumulations. Peptide spectra were acquired in either water, 20% acetonitrile, 140 mM sodium dodecyl sulfate (SDS), or 3:1 POPE:POPG, in buffer (10 mM Tris-Cl, 10 mM NaCl, pH 7), at a constant peptide concentration of 20 μM and then plotted using GraphPad Prism 9. Data are presented from 200 to 250 nm for ease of visualization. Raw millidegree (mdeg) spectra were background subtracted and converted to mean residue ellipticity (MRE) using Equation 1 below, where c is the concentration in μM, l is the pathlength in cm, and n is the number of residues.(1) MRE=100(mdeg)/cln
Using the MRE value at 222 nm, the peptide helical percentage was estimated using Equation 2 below ([45], [46]), where MRE222 is the MRE value at 222 nm and n is the number of peptide bonds.(2) %Helix=100(MRE222/(−39,500(1−2.57/n)))

| Compound | MIC (E. coli K12 [1]) [µM] | Dissipation of the proton motive force (DiOC2(3) RFU) (E. coli K12 [2]) | Tryptophan fluorescence quenching by PC-Br(11,12)-containing LUVs (depth of insertion) [3] | Peptide secondary structure in the aqueous phase (CD) [4] |
| --- | --- | --- | --- | --- |
| CC[C@H](C)[C@H](NC(=O)[C@H](C)NC(=O)[C@H](CC(C)C)NC(=O)CNC(=O)CNC(=O)[C@H](C)NC(=O)[C@H](CC(C)C)NC(=O)[C@H](CCSC)NC(=O)[C@@H](NC(=O)[C@@H](NC(=O)[C@@H](NC(=O)[C@H](C)NC(=O)[C@@H](NC(=O)[C@@H](NC(=O)[C@H](Cc1c[nH]c2ccccc12)NC(=O)[C@H](C)NC(=O)[C@H](Cc1ccccc1)NC(=O)[C@@H](NC(=O)[C@@H]1CCCN1C(=O)CN(C)C(=O)CN(C)C(=O)CN(C)C(=O)[C@H](C)NC(C)=O)[C@@H](C)CC)C(C)C)[C@@H](C)CC)[C@@H](C)CC)[C@@H](C)CC)[C@@H](C)CC)C(=O)N[C@@H](CC(C)C)C(=O)N[C@@H](CCCCN)C(=O)N[C@@H](CC(C)C)C(=O)N[C@@H](CCCCN)C(=O)N[C@@H](CCCCN)C(=O)N[C@@H](CCCCN)C(=O)N[C@@H](CCCCN)C(N)=O [TM1-1] (Ac-A[Sar][Sar][Sar]PIFAWVIAIIIMLAGGLAILKLKKKK-NH2) | >64 | re-establish the PMF back in the range of untreated cultures |  |  |
| carbonyl cyanide m-chlorophenylhydrazine [CCCP, reference compound] |  | immediate increase in RFU |  |  |
| CC[C@H](C)[C@H](NC(=O)CN)C(=O)NCC(=O)N[C@@H](C)C(=O)N[C@H](C(=O)N[C@@H](CC(C)C)C(=O)N[C@@H](CCCCN)C(=O)N[C@H](C(=O)N[C@@H](CC(C)C)C(=O)N[C@H](C(=O)N[C@H](C(=O)NCC(=O)N[C@@H](CC(C)C)C(=O)N1CCC[C@H]1C(=O)N[C@@H](C)C(=O)N[C@@H](CC(C)C)C(=O)N[C@H](C(=O)N[C@@H](CO)C(=O)N[C@@H](Cc1c[nH]c2ccccc12)C(=O)N[C@H](C(=O)N[C@@H](CCCCN)C(=O)N[C@@H](CCCNC(=N)N)C(=O)N[C@@H](CCCCN)C(=O)N[C@@H](CCCNC(=N)N)C(=O)N[C@@H](CCC(N)=O)C(=O)N[C@@H](CCC(N)=O)C(N)=O)[C@@H](C)CC)[C@@H](C)CC)[C@@H](C)O)[C@@H](C)O)C(C)C)C(C)C [Melittin, reference compound] | 5 ± 2 (≈ 14.2 µg/mL) |  |  |  |
| CC[C@H](C)[C@H](NC(=O)CNC(=O)[C@H](CC(C)C)NC(=O)[C@H](Cc1c[nH]c2ccccc12)NC(=O)[C@H](C)NC(=O)[C@@H](NC(=O)[C@@H](NC(=O)[C@H](CCSC)NC(=O)[C@@H](NC(=O)[C@H](C)NC(=O)[C@H](Cc1ccccc1)NC(=O)[C@H](C)NC(=O)[C@H](CC(C)C)NC(=O)[C@H](CC(C)C)NC(=O)CNC(=O)[C@@H]1CCCN1C(=O)[C@@H](NC(=O)CN(C)C(=O)CN(C)C(=O)CN(C)C(=O)[C@H](C)NC(C)=O)C(C)C)[C@@H](C)CC)[C@@H](C)CC)[C@@H](C)CC)C(=O)N[C@@H](C)C(=O)N[C@H](C(=O)N[C@H](C(=O)N[C@@H](CCCCN)C(=O)N[C@@H](CC(C)C)C(=O)N[C@@H](CCCCN)C(=O)N[C@@H](CCCCN)C(=O)N[C@@H](CCCCN)C(=O)N[C@@H](CCCCN)C(N)=O)[C@@H](C)CC)[C@@H](C)CC [TM1-3] (Ac-A[Sar][Sar][Sar]VPGLLAFAIMIIAWLGIAIIKLKKKK-NH2) | >64 |  | penetrate deeper into the lipid bilayer |  |
| CC[C@H](C)[C@H](NC(=O)[C@H](C)NC(=O)[C@H](CCSC)NC(=O)[C@H](C)NC(=O)[C@@H](NC(=O)[C@H](Cc1ccccc1)NC(=O)CNC(=O)[C@H](CC(C)C)NC(=O)[C@H](CC(C)C)NC(=O)CNC(=O)[C@@H]1CCCN1C(=O)[C@@H](NC(=O)CN(C)C(=O)CN(C)C(=O)CN(C)C(=O)[C@H](C)NC(C)=O)C(C)C)[C@@H](C)CC)C(=O)N[C@@H](Cc1c[nH]c2ccccc12)C(=O)N[C@H](C(=O)N[C@@H](CC(C)C)C(=O)N[C@H](C(=O)N[C@@H](C)C(=O)N[C@H](C(=O)N[C@H](C(=O)N[C@@H](C)C(=O)N[C@@H](CCCCN)C(=O)N[C@@H](CC(C)C)C(=O)N[C@@H](CCCCN)C(=O)N[C@@H](CCCCN)C(=O)N[C@@H](CCCCN)C(=O)N[C@@H](CCCCN)C(N)=O)[C@@H](C)CC)[C@@H](C)CC)[C@@H](C)CC)[C@@H](C)CC [TM1-4] (Ac-A[Sar][Sar][Sar]VPGLLGFIAMAIWILIAIIAKLKKKK-NH2) | >64 |  | penetrate deeper into the lipid bilayer | strongest helix |
| CC[C@H](C)[C@H](NC(=O)[C@H](C)NC(=O)[C@@H](NC(=O)[C@H](CC(C)C)NC(=O)[C@@H](NC(=O)[C@H](Cc1c[nH]c2ccccc12)NC(=O)CNC(=O)[C@H](C)NC(=O)[C@H](CCSC)NC(=O)[C@H](C)NC(=O)CNC(=O)[C@H](Cc1ccccc1)NC(=O)[C@@H](NC(=O)[C@H](CC(C)C)NC(=O)[C@H](CC(C)C)NC(=O)[C@@H](NC(=O)[C@@H]1CCCN1C(=O)[C@@H](NC(=O)CN(C)C(=O)CN(C)C(=O)CN(C)C(=O)[C@H](C)NC(C)=O)C(C)C)[C@@H](C)CC)[C@@H](C)CC)[C@@H](C)CC)[C@@H](C)CC)C(=O)N[C@H](C(=O)N[C@@H](C)C(=O)N[C@@H](CCCCN)C(=O)N[C@@H](CC(C)C)C(=O)N[C@@H](CCCCN)C(=O)N[C@@H](CCCCN)C(=O)N[C@@H](CCCCN)C(=O)N[C@@H](CCCCN)C(N)=O)[C@@H](C)CC [TM1-2] (Ac-A[Sar][Sar][Sar]VPILLIFGAMAGWILIAIIAKLKKKK-NH2) | >64 | re-establish the PMF back in the range of untreated cultures |  |  |
